US9732067B2, “Compounds and methods for activating the apoptotic arm of the unfolded protein response” (University of Kansas, priority 2012, dated 2017)
Several values for one entry are separate records, joined by “and”; a condition that tells them apart may be missing. Equal values may be shown once. Read-outs that look alike come from different tables or passages of the source.

Assays:
[1] = test system: MEF with wild-type CHOP; test: Proliferation / cytotoxicity (ATPLite) in MEF with wild-type CHOP; type: cell-based, mouse
Description: (§1) Several of the analogs derived from these changes were evaluated in secondary assays as they met the preliminary probe criteria for UPR-CHOP and UPR-XBP1 activity. Select compounds were assessed in a dose response manner for the ability to suppress proliferation in both the CHOP wild-type and CHOP knockout murine embryonic fibroblasts (−/− MEF KO CHOP)(Table 2).
(§2) It was determined whether ML291 and ML291 congeners would induce cell death (cytotoxicity as measured by ATPLite®, which measures production of ATP from living cells) in cells where these pathways are operant, but not activate them in the absence of the pathways.

[2] = Tolerability of ML291 in mice; type: in vivo
[3] = test system: −/− MEF KO CHOP; test: Proliferation / cytotoxicity (ATPLite) in MEF with CHOP KO; type: cell-based; conditions: Mus musculus
Description: as §1, §2

[4] = test system: CHOP transcripts (apoptotic) compared to spliced XBP1 (adaptive); test: qRT-PCR transcription profile in OSCC cell lines UMSCC23, A253 and HN12; type: cell-based; conditions: four hours treatment
Source text: While ML291 robustly and selectively activated the apoptotic (CHOP) arm of UPR in the engineered luciferase reporter CHO-K1 cells, while not activating reporter under the control of the adaptive arm (XBP1) promoters, direct confirmation of the selective activation of genes and pathways on the apoptotic UPR arm in a biologically relevant cell or cell line was needed. To determine whether or not ML291 could selectively activate the apoptotic (CHOP) arm of the UPR, relevant oral squamous cell carcinoma cell lines, UMSCC23, A253 and HN12, were treated with ML291 for four hours. The activation/induction of associated genes along the UPR sub-pathways were measured by quantitative real-time reverse-transcription PCR (qRT-PCR) analysis of cDNA pools generated from whole cell lysates. […] Furthermore, the simultaneous induction of the CHOP down stream target GADD34, but not the DNA excision and repair gene ERCC1 indicated ML291 was activating CHOP via the UPR and not DNA damage.

[5] = Plasma protein binding, human; type: in vitro ADME
Source text: Plasma protein binding is a measure of a drug's efficiency to bind to the proteins within blood plasma. The less bound a drug is, the more efficiently it can traverse cell membranes or diffuse. Highly plasma protein bound drugs are confined to the vascular space, thereby having a relatively low volume of distribution. In contrast, drugs that remain largely unbound in plasma are generally available for distribution to other organs and tissues. ML291 was highly plasma protein bound to human plasma proteins (>99%), though it is somewhat less tightly bound to mouse plasma proteins (˜84%).

[6] = Aqueous solubility in pION's buffer; type: physicochemical
Source text: Solubility was highest at the physiological of pH 7.4.

[7] = Plasma stability, human; type: in vitro ADME
Source text: Plasma stability is a measure of the stability of small molecules and peptides in plasma and is an important parameter, which strongly can influence the in vivo efficacy of a test compound. Drug candidates are exposed in plasma to enzymatic processes (proteinases, esterases), and they can undergo intramolecular rearrangement or bind irreversibly (covalently) to proteins. ML291 appeared to be moderately stable in human plasma (˜84% remaining), but less so in mouse plasma (˜52% remaining).

[8] = biological target: T1, dopamine transporter (DAT) (Homo sapiens, UniProt Q01959); test: Radio-ligand binding panel (Ricerca), 67 GPCRs, ion channels and transporters
T1 construct: Ricerca Biosciences LLC (Bothell, Wash.)
T1 sequence (Q01959 whole entry, species assumed): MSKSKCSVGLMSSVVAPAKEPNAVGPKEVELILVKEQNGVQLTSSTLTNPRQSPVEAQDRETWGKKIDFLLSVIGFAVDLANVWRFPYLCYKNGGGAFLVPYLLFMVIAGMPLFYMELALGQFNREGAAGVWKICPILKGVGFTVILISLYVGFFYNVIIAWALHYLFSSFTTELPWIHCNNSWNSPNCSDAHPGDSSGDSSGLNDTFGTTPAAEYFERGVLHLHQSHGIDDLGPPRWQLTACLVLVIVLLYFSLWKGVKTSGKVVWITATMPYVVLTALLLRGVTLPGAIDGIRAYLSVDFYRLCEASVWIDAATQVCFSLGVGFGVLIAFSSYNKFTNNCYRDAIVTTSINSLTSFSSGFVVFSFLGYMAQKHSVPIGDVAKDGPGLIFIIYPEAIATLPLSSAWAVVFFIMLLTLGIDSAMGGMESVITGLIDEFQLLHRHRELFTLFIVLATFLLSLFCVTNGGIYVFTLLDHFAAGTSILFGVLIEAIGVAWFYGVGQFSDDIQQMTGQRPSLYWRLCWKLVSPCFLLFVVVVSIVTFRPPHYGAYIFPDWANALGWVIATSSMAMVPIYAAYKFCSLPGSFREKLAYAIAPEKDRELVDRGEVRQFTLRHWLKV
Description: ML291 was submitted to Ricerca Biosciences LLC (Bothell, Wash.) to evaluate it in radio-ligand binding assays to determine activity against a panel of 67 GPCRs, ion channels and transporters at 10 μM.

[9] = test system: A253-CHOP-luc xenografts; test: Bioluminescent imaging of A253-CHOP-luc xenografts; type: in vivo, SCID mice; conditions: 24 hours after 10 mg/kg (IP)
[10] = Aqueous solubility in 1x PBS, pH 7.4; type: physicochemical; conditions: room temperature (23° C.)
Description: Solubility was measured in phosphate-buffered saline (PBS) at room temperature (23° C.). PBS by definition is 137 mM NaCl, 2.7 mM KCl, 10 mM sodium phosphate dibasic, 2 mM potassium phosphate monobasic and a pH of 7.4.

[11] = test system: A253; test: Proliferation, A253; type: cell-based; conditions: Homo sapiens, 24 hours, average of three experiments
Description: (§3) To determine whether ML291 could reduce the proliferation of malignant cells, a panel of OSCC (UMSCC23, A253, HN6, HN12, HN30, H460/T800) and ovarian cancer (RMG-1, TOV112D, A2780 and SKOV3) cell lines, were treated with increasing doses (0.15-20 μM) of ML291 for 24 hours (FIGS. 3A and 3B).

[12] = test system: SKOV3; test: Proliferation, SKOV3; type: cell-based; conditions: Homo sapiens, SK-OV-3, 24 hours
Description: as §3

**Q.** For `O=C(Nc1ccc(S(=O)(=O)N2CCC(Cl)CC2)cc1)c1ccc([N+](=O)[O-])o1` [ML291, N-(4-((4-chloropiperidin-1-yl)sulfonyl)phenyl)-5-nitrofuran-2-carboxamide], which “shift of potency in MEF wild-type CHOP versus CHO-K1 cell reporter assays” value [1] is on record?
**A.** ~6 fold

**Q.** And the EC50 ([1]; Mus musculus, Table 2, mean of replicates, EC50 and μM, read-out: Proliferation MEF wt CHOP)?
**A.** 4.77 ± 1.05 µM

**Q.** What about the IC50 ([1]; Mus musculus, Table 5, MEF, ATPLite) of the same molecule?
**A.** 4.77 ± 1.05 µM

**Q.** And the EC50 ([1]; Mus musculus, read-out: CHOP wild-type EC50 (MEF))?
**A.** 4.77 µM

**Q.** And the EC50 ([1]; read-out: CHOP wild-type EC50 (MEF))?
**A.** ~4.8 µM

**Q.** What about the “weight, physical appearance, disposition or activity versus controls” value ([2]; 10 mg/kg IP daily, preliminary) of the same molecule?
**A.** no differences in weight, physical appearance, disposition or activity

**Q.** What about the side effects ([2]; 10 mg/kg bi-weekly for four weeks) of the same molecule?
**A.** did not display any obvious side effects

**Q.** And the EC50 ([3]; Table 2, mean of replicates, EC50 and μM, read-out: Proliferation −/− MEF KO CHOP)?
**A.** > 20 µM

**Q.** And the IC50 ([3]; Table 5, MEF, ATPLite)?
**A.** > 20 µM

**Q.** What about the EC50 ([3]; read-out: EC50 on −/− MEF knockout cells) of the same molecule?
**A.** > 20 µM

**Q.** And the “selectivity of CHOP transcripts compared to spliced XBP1” value [4]?
**A.** 5 fold

**Q.** What about the “bound to human plasma proteins” value [5] of the same molecule?
**A.** > 99%

**Q.** And the fraction unbound at 1 µM ([5]; plasma, Human, 1 μM, read-out: Plasma Protein Binding (% Bound) (converted))?
**A.** 0.0025

**Q.** And the fraction unbound at 10 µM ([5]; plasma, Human, 10 μM, read-out: Plasma Protein Binding (% Bound) (converted))?
**A.** 0.0037

**Q.** And the “solubility over its EC50” value ([6]; EC50 762 nM)?
**A.** 11-13 fold

**Q.** What about the solubility ([6]; aqueous buffer (pION's buffer), aqueous buffer, pH range of 5.2-7.4, read-out: solubility in aqueous buffers) of the same molecule?
**A.** 8.7 µM to 9.7 µM and 3.6 µg/mL to 4 µg/mL

**Q.** What about the “Aqueous Solubility in pION's buffer” value ([6]; pH 5.0) of the same molecule?
**A.** 3.6 μg/mL and 8.7 μM

**Q.** And the “Aqueous Solubility in pION's buffer” value ([6]; pH 6.2)?
**A.** 3.8 μg/mL and 9.2 μM

**Q.** What about the “Aqueous Solubility in pION's buffer” value ([6]; pH 7.4) of the same molecule?
**A.** 4.0 μg/mL and 9.7 μM

**Q.** What about the “remaining in human plasma” value [7] of the same molecule?
**A.** ~84%

**Q.** What about the “Plasma Stability (% Remaining at 3 hours @ 37° C.)” value ([7]; Human) of the same molecule?
**A.** 85.58%

**Q.** What about the inhibition at 10 µM [8] of the same molecule?
**A.** 68%

**Q.** And the luminescence of xenografts [9]?
**A.** increased luminescence

**Q.** What about the “Aqueous Solubility in 1x PBS, pH 7.4” value [10] of the same molecule?
**A.** 3.9 μg/mL and 9.4 μM

**Q.** And the IC50 [11]?
**A.** 17.2 ± 3.64 µM

**Q.** And the IC50 [12]?
**A.** 1.59 µM
